Data: US20230219939A1, “N-(1-CYANO-PYRROLIDIN-3-YL)-5-(3-(TRIFLUOROMETHYL)PHENYL)OXAZOLE-2-CARBOXAMIDE DERIVATIVES AND THE CORRESPONDING OXADIAZOLE DERIVATIVES AS USP30 INHIBITORS FOR THE TREATMENT OF MITOCHONDRIAL DYSFUNCTION” (MISSION THERAPEUTICS LIMITED, priority 2020, published 2023)
Values joined by “and” are separate entries in the source; they are usually repeats but may differ in a detail not shown here. Equal entries are not always repeated. Where two headings read alike, the source gives them in different places.

Experiments:
Cathepsin L = Cathepsin L (Homo sapiens, UniProt P07711); test: Cathepsin L IC50; assay type: biochemical
USP30 = molecular target: T1, USP30 (Homo sapiens, UniProt Q70CQ3); test: USP30 biochemical IC50 assay (fluorescence polarisation)
T1 construct: purchased Boston Biochem E582
T1 sequence (Q70CQ3 57-517 limits assumed): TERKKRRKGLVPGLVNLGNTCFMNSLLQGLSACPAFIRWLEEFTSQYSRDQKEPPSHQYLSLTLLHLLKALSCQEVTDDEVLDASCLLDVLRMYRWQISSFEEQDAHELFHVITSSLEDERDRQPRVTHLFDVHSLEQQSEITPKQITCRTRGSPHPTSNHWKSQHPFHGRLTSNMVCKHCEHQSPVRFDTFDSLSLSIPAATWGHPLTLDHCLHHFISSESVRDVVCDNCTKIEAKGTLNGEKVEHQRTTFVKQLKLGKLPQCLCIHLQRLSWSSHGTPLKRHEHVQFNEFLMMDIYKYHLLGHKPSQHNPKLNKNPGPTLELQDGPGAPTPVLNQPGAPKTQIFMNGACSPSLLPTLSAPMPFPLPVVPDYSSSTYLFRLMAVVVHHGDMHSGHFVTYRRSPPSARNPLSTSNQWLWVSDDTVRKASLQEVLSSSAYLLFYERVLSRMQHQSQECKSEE
Experimental: Dilution plates were prepared at 21 times the final concentration (2100 μM for a final concentration of 100 μM) in 50% DMSO in a 96-well polypropylene V-bottom plate (Greiner #651201). A typical 8-point dilution series would be 100, 30, 10, 3, 1, 0.3, 0.1, 0.03 μM final. Reactions were performed in duplicate in black 384 well plates (small volume, Greiner 784076) in a final reaction volume of 21 μl. Either 1 μl of 50% DMSO or diluted compound was added to the plate. USP30 (Boston Biochem #E582) was diluted in reaction buffer (40 mM Tris, pH 7.5, 0.005% Tween 20, 0.5 mg/ml BSA, 5 mM beta-mercaptoethanol) to achieve a final assay concentration of 4 nM, and 10 μl of diluted USP30 was added to the compound. Enzyme and compound were incubated for 30 min at room temp. Reactions were initiated by the addition of 50 nM of TAMRA labelled peptide linked to ubiquitin via an iso-peptide bond as fluorescence polarisation substrate. Reactions were read immediately after addition of substrate and following a 2-hour incubation at room temperature. Readings were performed on a Pherastar Plus (BMG Labtech). λ Excitation 540 nm; λ Emission 590 nm.

UCHL1 = molecular target: T2, UCHL1 (Homo sapiens, UniProt P09936); test: UCHL1 DUB IC50; assay type: biochemical
T2 sequence (P09936 1-223): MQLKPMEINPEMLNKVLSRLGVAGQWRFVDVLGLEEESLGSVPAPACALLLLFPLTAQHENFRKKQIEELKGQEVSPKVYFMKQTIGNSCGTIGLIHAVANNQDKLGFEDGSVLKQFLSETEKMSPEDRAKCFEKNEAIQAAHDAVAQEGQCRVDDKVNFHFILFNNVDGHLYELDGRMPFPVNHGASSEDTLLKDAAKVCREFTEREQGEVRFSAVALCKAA

[1] = system: USP2, USP6, USP10, USP16, USP21, USP22, USP25, USP28; test: DUB selectivity panel IC50; assay type: biochemical
Cathepsin V = Cathepsin V (Homo sapiens, UniProt O60911); test: Cathepsin V IC50; assay type: biochemical
Cathepsin B = Cathepsin B (Homo sapiens, UniProt P07858); test: Cathepsin B IC50; assay type: biochemical
Cathepsin K = molecular target: T3, Cathepsin K (Homo sapiens, UniProt P43235); test: Cathepsin K IC50; assay type: biochemical
T3 sequence (P43235 115-329): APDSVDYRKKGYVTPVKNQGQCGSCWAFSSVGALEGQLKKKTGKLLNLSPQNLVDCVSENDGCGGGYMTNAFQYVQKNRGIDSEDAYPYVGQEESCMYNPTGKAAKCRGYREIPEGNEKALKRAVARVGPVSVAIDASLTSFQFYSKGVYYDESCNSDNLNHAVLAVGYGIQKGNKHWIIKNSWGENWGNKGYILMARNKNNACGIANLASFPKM

Cathepsin S = Cathepsin S (Homo sapiens, UniProt P25774); test: Cathepsin S IC50; assay type: biochemical
Cathepsins B, K, L, S, V = test: Cathepsin panel IC50 (summary over B, K, L, S, V); assay type: biochemical; details: for IC50: range over the five cathepsins
mouse hepatocytes = test: Hepatocyte Cl mouse; assay type: in vitro ADME
Experimental: Hep Cl mouse: in vitro hepatocyte clearance in mouse cells.
Clu: in vitro clearance. Clu as defined here is the scaled clearance, in turn calculated from the intrinsic clearance. The intrinsic clearance is the predicted clearance due to hepatic metabolic reactions, determined from incubation of a compound in a hepatocyte preparation.

Mouse plasma stability = assay type: in vitro ADME; details: mouse plasma; read-out: Stability Mouse plasma t1/2
[2] = read-out: Cathepsin IC50 (μM) Cathepsin L
[3] = USP30 biochemical IC50 assay, read-out: USP30 IC50
[4] = range over the eight DUBs, read-out: DUB IC50 (μM) USP2, USP6, USP10, USP16, USP21, USP22, USP25, USP28
[5] = read-out: Cathepsin IC50 (μM) B, K, L, S, V
[6] = read-out: Cathepsin IC50 (μM) Cathepsin U
[7] = read-out: Cathepsin IC50 (μM) B, K, U, S, V

Chain of Cathepsin V (O60911 114-334, species assumed): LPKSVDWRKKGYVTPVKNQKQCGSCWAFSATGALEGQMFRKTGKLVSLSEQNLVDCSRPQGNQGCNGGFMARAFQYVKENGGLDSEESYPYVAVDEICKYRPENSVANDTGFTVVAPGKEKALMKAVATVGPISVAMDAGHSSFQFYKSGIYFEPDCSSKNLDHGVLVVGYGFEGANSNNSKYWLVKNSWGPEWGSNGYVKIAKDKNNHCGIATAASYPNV
Chain of Cathepsin L (P07711 114-333, species assumed): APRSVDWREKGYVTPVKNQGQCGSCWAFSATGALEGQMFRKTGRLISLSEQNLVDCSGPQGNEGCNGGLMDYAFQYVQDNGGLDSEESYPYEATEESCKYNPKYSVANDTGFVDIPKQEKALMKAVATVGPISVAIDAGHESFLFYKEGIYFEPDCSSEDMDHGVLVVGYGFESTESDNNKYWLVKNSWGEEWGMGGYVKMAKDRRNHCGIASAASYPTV
Chain of Cathepsin S (P25774 115-331, species assumed): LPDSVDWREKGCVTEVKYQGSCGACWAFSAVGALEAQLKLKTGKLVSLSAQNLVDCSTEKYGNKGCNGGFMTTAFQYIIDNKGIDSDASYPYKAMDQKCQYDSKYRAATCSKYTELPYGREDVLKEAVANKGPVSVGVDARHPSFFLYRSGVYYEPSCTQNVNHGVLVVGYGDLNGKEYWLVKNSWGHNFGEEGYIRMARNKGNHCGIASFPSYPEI

Row | SMILES | IC50 (USP30; [3]) | IC50 (USP30; read-out: DUB IC50 (μM) USP30) | IC50 (UCHL1) | IC50 [1, 4] | IC50 (Cathepsin V) | IC50 (Cathepsin B) | other results
1 | COC[C@@H]1C[C@@H](NC(=O)c2nnc(-c3cccc(C(F)(F)F)c3)o2)CN1C#N [Example 8, N-((3R,5S)-1-Cyano-5-(methoxymethyl)pyrrolidin-3-yl)-5-(3-(trifluoromethyl)phenyl)-1,3,4-oxadiazole-2-carboxamide] | 0.038 µM | 0.038 µM and 0.004 to 0.033 µM | > 300 µM | 4.6 to 78.9 µM | > 30 µM | 116 µM | IC50 (Cathepsin L; [2]): > 30 µM
2 | COC[C@H]1C[C@@H](NC(=O)c2ncc(-c3cccc(C(F)(F)F)c3)o2)CN1C#N [Example 12, N-((3R,5R)-1-Cyano-5-(methoxymethyl)pyrrolidin-3-yl)-5-(3-(trifluoromethyl)phenyl)oxazole-2-carboxamide] | 0.015 µM | 0.015 µM | 149 µM | > 300 µM | > 30 µM | > 300 µM | IC50 (Cathepsin L; [2]): > 30 µM; DUB selectivity preference for USP30 v UCHL1 (UCHL1): 9933; DUB selectivity preference for USP30 v 8 DUBs [1]: >20000; IC50 (Cathepsin K): > 30 µM; IC50 (Cathepsin S): > 30 µM; Selectivity preference for USP30 v cathepsins (Cathepsins B, K, L, S, V): >2000; IC50 (Cathepsins B, K, L, S, V; [5]): > 30 µM
3 | COC[C@@H]1C[C@@H](NC(=O)c2ncc(-c3cc(C(F)(F)F)ccc3OC3CC3)o2)CN1C#N [Example 9, N-((3R,5S)-1-cyano-5-(methoxymethyl)pyrrolidin-3-yl)-5-(2-cyclopropoxy-5-(trifluoromethyl)phenyl)-oxazole-2-carboxamide] | 0.004 µM | 0.004 µM and 0.004 to 0.033 µM | > 300 µM | 2.9 to 135 µM | 101 µM | > 300 µM | IC50 (Cathepsin L; [2]): 18.2 µM; IC50 (Cathepsins B, K, L, S, V; [5]): ≥ 9.9 µM
4 | N#CN1CC[C@H](C(=O)Nc2ncc(-c3ccccc3)s2)C1 [C, reference compound] |  |  |  |  |  |  | fold more potent against USP30 than UCHL1 (UCHL1): 0.8 fold
5 | CC1CC(C(=O)Nc2ncc(-c3ccccc3)s2)CN1C#N (stereo not drawn) [Reference Example D, reference compound] |  |  |  |  |  |  | fold more potent against USP30 than UCHL1 (UCHL1): 1.5 fold
6 | N#CN1CC[C@@H](NC(=O)c2cc(-c3ccc(C(F)(F)F)cc3)no2)C1 [Reference Example A, reference compound] | 0.12 µM | 0.12 µM |  |  | 7.2 µM | 0.85 µM | IC50 (Cathepsin L; [6]): 2.1 µM; Hepatocyte Cl mouse Scaled Clu (mouse hepatocytes): 118 mL/min/kg; IC50 ([1]; range over seven DUBs, exc. USP6, read-out: DUB IC50 (μM) USP2, USP6, USP10, USP16, USP21, USP22, USP25, USP28 (exc. USP6)): 0.81 to 3 µM; half-life (Mouse plasma stability): > 120 min; IC50 (Cathepsins B, K, L, S, V; [7]): ≥ 0.73 µM
7 | C[C@@H]1C[C@@H](NC(=O)c2nnc(-c3cc(C(F)(F)F)ccc3OC3CC3)o2)CN1C#N [Example 6, N-((3R,5R)-1-Cyano-5-methylpyrrolidin-3-yl)-5-(2-cyclopropoxy-5-(trifluoromethyl)phenyl)-1,3,4-oxadiazole-2-carboxamide] | 0.073 µM |  |  |  |  |  | 
8 | N#CN1C[C@H](NC(=O)c2ncc(-c3cccc(C(F)(F)F)c3)o2)C[C@H]1Cn1ccnn1 [Example 4, N-((3R,5S)-5-((1H-1,2,3-Triazol-1-yl)methyl)-1-cyanopyrrolidin-3-yl)-5-(3-(trifluoromethyl)phenyl) oxazole-2-carboxamide] | 0.004 µM |  |  |  |  |  | 
9 | COC[C@@H]1C[C@@H](NC(=O)c2nnc(-c3cc(C(F)(F)F)ccc3Cl)o2)CN1C#N [Example 11, 5-(2-Chloro-5-(trifluoromethyl)phenyl)-N-((3R,5S)-1-cyano-5-(methoxymethyl)pyrrolidin-3-yl)-1,3,4-oxadiazole-2-carboxamide] | 0.022 µM | 0.004 to 0.033 µM | > 300 µM |  |  |  | 
10 | C[C@@H]1C[C@@H](NC(=O)c2ncc(-c3cccc(C(F)(F)F)c3)o2)CN1C#N [Example 2, N-((3R,5R)-1-cyano-5-methylpyrrolidin-3-yl)-5-(3-(trifluoromethyl)phenyl)oxazole-2-carboxamide] | 0.008 µM | 0.008 µM | 280 µM | 17.2 to 108 µM | 56 µM | 79 µM | IC50 (Cathepsin L; [2]): 7.9 µM

Further lines, with some results ahead:

Row | IC50 (USP30; [3]) | IC50 (USP30; read-out: DUB IC50 (μM) USP30) | IC50 (UCHL1) | IC50 [1, 4] | IC50 (Cathepsin V) | IC50 (Cathepsin B) | SMILES | other results
11 | 0.003 µM |  |  |  |  |  | CS(=O)(=O)C[C@@H]1C[C@@H](NC(=O)c2ncc(-c3cccc(C(F)(F)F)c3)o2)CN1C#N [Example 3, N-((3R,5S)-1-Cyano-5-((methylsulfonyl)methyl)pyrrolidin-3-yl)-5-(3-(trifluoromethyl)phenyl)-oxazole-2-carboxamide] | 
12 | 0.041 µM |  |  |  |  |  | COC[C@@H]1C[C@@H](NC(=O)c2nnc(-c3cc(C(F)(F)F)ccc3OC3CC3)o2)CN1C#N [Example 5, N-((3R,5S)-1-Cyano-5-(methoxymethyl)pyrrolidin-3-yl)-5-(2-cyclopropoxy-5-(trifluoromethyl)phenyl)-1,3,4-oxadiazole-2-carboxamide] | 
13 | 0.041 µM |  |  |  |  |  | COC[C@@H]1C[C@@H](NC(=O)c2nnc(-c3cc(C(F)(F)F)ccc3OC)o2)CN1C#N [Example 10, N-((3R,5S)-1-Cyano-5-(methoxymethyl)pyrrolidin-3-yl)-5-(2-methoxy-5-(trifluoromethyl)phenyl)-1,3,4-oxadiazole-2-carboxamide] | 
14 | 0.033 µM | 0.004 to 0.033 µM | > 300 µM |  |  |  | C[C@@H]1C[C@@H](NC(=O)c2nnc(-c3cccc(C(F)(F)F)c3)o2)CN1C#N [Example 7, N-((3R,5R)-1-Cyano-5-methylpyrrolidin-3-yl)-5-(3-(trifluoromethyl)phenyl)-1,3,4-oxadiazole-2-carboxamide] | 
15 | 0.3 µM | 0.3 µM | 0.15 µM | 3.8 to 59.7 µM | 2.5 µM | 4.6 µM | N#CN1CC[C@H](C(=O)Nc2cn(-c3cccc(C(F)(F)F)c3)cn2)C1 [Reference Example B, reference compound] | IC50 (Cathepsin L; [6]): 1.1 µM; DUB selectivity preference for USP30 v UCHL1 (UCHL1): 0.5; fold more potent against USP30 than UCHL1 (UCHL1): 0.5 fold; Hepatocyte Cl mouse Scaled Clu (mouse hepatocytes): >121 mL/min/kg; DUB selectivity preference for USP30 v 7/8 DUBs ([1]; Ref. Ex. A 7 DUBs (exc. USP6), Ref. Ex. B 8 DUBs): 12.7-199; minimum fold more potent against USP30 than against each of the eight DUBs ([1]; USP2, USP6, USP10, USP16, USP21, USP22, USP25, USP28, 'A' not tested against USP6): 12.7 fold; IC50 (Cathepsin K): 0.91 µM; fold more potent against USP30 than against cathepsin K (Cathepsin K): 3 fold; half-life (Mouse plasma stability): 10.4 min; IC50 (Cathepsin S): 6.4 µM; Selectivity preference for USP30 v cathepsins (Cathepsins B, K, L, S, V): 3.0-21; IC50 (Cathepsins B, K, L, S, V; [7]): 0.91 to 6.4 µM
